Consider six molecules from patent US9637516B2, “Betulinic acid proline derivatives as HIV inhibitors” (HETERO RESEARCH FOUNDATION, priority 2012, dated 2017).

Series [1] can be described thus: Single dose oral pharmacokinetic study. Conditions: mouse, plasma. The class given is in vivo, mice. How it is done: The test item was administered through oral route to animals (rat/mice) at 30 mg/kg dose in a suitable vehicle at 10 ml/kg dose volume. Blood samples (˜50 uL at each time point) were collected from retro-orbital plexus using K3 EDTA as anticoagulant in eppendorf tubes at defined time intervals under light ether anesthesia. The samples were centrifuged at 3500×g to separate plasma and stored at −80° C. until analysis.
Sample analysis: Test samples were analyzed using LC-MS-MS after developing fit-for-purpose method for each of test compound.

For a further series, the system named is HIV-1 strain 92HT599. The series can be described thus: Antiviral activity: p24 estimation in MT2 cells infected with HIV-1 strain 92HT599. The format is cell-based. Conditions: for inhibition at 0.1 µM: Human immunodeficiency virus 1, 100 nM; for inhibition at 0.1 µM / inhibition at 1 µM: HIV-1 92HT599, p24, ~96 hours; for inhibition at 1 µM: Human immunodeficiency virus 1, 1000 nM. How it is done:
MT2 cells were infected with HIV-1 strain 92HT599 (10 TCID 50/30000 cells). The infected cells were plated at the concentration of ˜30 000 cells per well in 96 well plate. Test compound was added to the micro plate in defined format with the final concentration of DMSO (vehicle) is not more than 1%. Incubation was carried out in CO2 incubator for ˜96 hours for viral infection. At the end of incubation period an aliquot from each well was taken for p24 estimation. The quantitation of p24 is an index for antiviral activity of the compound. Percent inhibition was calculated with reference to control values (vehicle controls). p-24 estimation was carried out using Advance biosciences kit as per the procedure detailed by supplier.

Where [2] appears, read: Mice oral PK @30 mg/kg (Table 3).
The mark [3] stands for this setting: Mice oral PK @30 mg/kg (Table 4).

For the molecule `C=C(C)[C@@H]1CC[C@]2(C(=O)N3CCC[C@@H]3c3nc(-c4ccccc4)no3)CC[C@]3(C)[C@H](CC[C@@H]4[C@@]5(C)CC[C@H](OC(=O)CC(C)(C)C(=O)O)C(C)(C)[C@@H]5CC[C@]43C)[C@@H]12` [Compound 1, 2,2-dimethyl-4-oxo-4-((1R,3aS,5aR,5bR,7aR,9S,11aR,11bR,13aR,13bR)-5a,5b,8,8,11a-pentamethyl-3a-((R)-2-(3-phenyl-1,2,4-oxadiazol-5-yl)pyrrolidine-1-carbonyl)-1-(prop-1-en-2-yl)icosahydro-1H-cyclopenta[a]chrysen-9-yloxy)butanoic acid], in series [1] (setting [2]), the AUC(0-t) (commonly the area under the concentration-time curve up to a stated or last time point) amounted to 125 µg·h/mL; the Cmax (commonly the highest concentration seen after dosing) worked out at 12700 ng/mL; the Tmax (in general, the time at which the peak concentration occurs) is 6 h. Moreover, in the series with HIV-1 strain 92HT599 (Human immunodeficiency virus 1, HIV-1 92HT599, p24), the half-inhibitory concentration (IC50) (in general, the concentration that gives 50% inhibition) is 5.02 nM.
As for `C=C(C)[C@@H]1CC[C@]2(C(=O)N3CCC[C@H]3c3ncc(-c4ccc([N+](=O)[O-])cc4)[nH]3)CC[C@]3(C)[C@H](CC[C@@H]4[C@@]5(C)CC[C@H](OC(=O)[C@H]6C[C@@H](C(=O)O)C6(C)C)C(C)(C)[C@@H]5CC[C@]43C)[C@@H]12` [Compound 17], in the series with HIV-1 strain 92HT599, the inhibition (in general, the drop in the measured response relative to a control, in per cent) at 0.1 µM is 96% and the inhibition at 1 µM was 100%.
In the case of `C=C(C)[C@@H]1CC[C@]2(C(=O)N3CCCC3c3ncc(-c4ccc(C#N)cc4)[nH]3)CC[C@]3(C)[C@H](CC[C@@H]4[C@@]5(C)CC[C@H](OC(=O)[C@H]6C[C@@H](C(=O)O)C6(C)C)C(C)(C)[C@@H]5CC[C@]43C)[C@@H]12` (stereo partly shown) [Compound 19], in the series on HIV-1 strain 92HT599, the inhibition at 0.1 µM was 86% and the inhibition at 1 µM is 100%.
Taken in the same sequence, the figures for `CC1(C)C(C(=O)O)CC1C(=O)O[C@H]1CC[C@]2(C)[C@H]3CC[C@@H]4[C@H]5[C@H](C6(C)CC6)CC[C@]5(C(=O)N5CCC[C@H]5c5ncc(-c6cccnc6)[nH]5)CC[C@@]4(C)[C@]3(C)CC[C@H]2C1(C)C` (stereo partly drawn) [Compound 32, 2,2-dimethyl-3-((((1R,3aS,5aR,5bR,7aR,9S,11aR,11bR,13aR,13bR)-5a,5b,8,8,11a-pentamethyl-1-(1-methylcyclopropyl)-3a-((S)-2-(5-(pyridin-3-yl)-1H-imidazol-2-yl)pyrrolidine-1-carbonyl)icosahydro-1H-cyclopenta[a]chrysen-9-yl)oxy)carbonyl)cyclobutane-1-carboxylic acid] were 100% and 100%.
In the case of `C=C(C)[C@@H]1CC[C@]2(C(=O)N3CCC[C@H]3c3ncc(-c4ccc(O)cc4)[nH]3)CC[C@]3(C)[C@H](CC[C@@H]4[C@@]5(C)CC[C@H](OC(=O)C6CC(C(=O)O)C6(C)C)C(C)(C)[C@@H]5CC[C@]43C)[C@@H]12` (stereo partly drawn) [Compound 36, 3-((((1R,3aS,5aR,5bR,7aR,9S,11aR,11bR,13aR,13bR)-3a-((S)-2-(5-(4-hydroxyphenyl)-1H-imidazol-2-yl)pyrrolidine-1-carbonyl)-5a,5b,8,8,11a-pentamethyl-1-(prop-1-en-2-yl)icosahydro-1H-cyclopenta[a]chrysen-9-yl)oxy)carbonyl)-2,2-dimethylcyclobutane-1-carboxylic acid], in series [1] (setting [3]), the area under the curve AUC(0-inf) (in general, total exposure, with the tail of the curve extrapolated) amounted to 518 µg·h/mL; the AUC(0-t) stood at 334 µg·h/mL; the highest concentration (Cmax) was found to be 10900 ng/mL; the half-life (commonly the time in which the quantity being followed falls by half) is 30.3 h.
For `C=C(C)[C@@H]1CC[C@]2(C(=O)N3CCC[C@@H]3c3ncc(-c4ccccc4)[nH]3)CC[C@]3(C)[C@H](CC[C@@H]4[C@@]5(C)CC[C@H](OC(=O)C6CC(C(=O)O)C6(C)C)C(C)(C)[C@@H]5CC[C@]43C)[C@@H]12` (stereo partly drawn) [Compound 41, 2,2-dimethyl-3-((((1R,3aS,5aR,5bR,7aR,9S,11aR,11bR,13aR,13bR)-5a,5b,8,8,11a-pentamethyl-3a-((R)-2-(5-phenyl-1H-imidazol-2-yl)pyrrolidine-1-carbonyl)-1-(prop-1-en-2-yl)icosahydro-1H-cyclopenta[a]chrysen-9-yl)oxy)carbonyl)cyclobutane-1-carboxylic acid], in the series with HIV-1 strain 92HT599, the inhibition at 0.1 µM is 98% and the inhibition at 1 µM is 99%.
